Values of other authors, collected in patent US12714758B2, “DOTA-hapten compositions for anti-DOTA/anti-tumor antigen bispecific antibody pretargeted radioimmunotherapy” (Memorial Sloan Kettering Cancer Center, priority 2020, dated 2026).

System: GD2
Conditions: 24 hours post-injection

- blood uptake: 0.49±0.09 % ID/g
- kidney uptake: 0.83±0.10 % ID/g
- tumor uptake (average±SD, n=5): 10.29±2.87 % ID/g
Substance: ^177Lu-S-2-(4-aminobenzyl)-1,4,7,10-tetraazacyclododecane tetraacetic acid chelate [^177Lu-DOTA-Bn]
